# In the NIST ThermoML archive (doi:10.1021/je060271a):
# Numbers after ± are expanded uncertainties.
# Details: 323.15 K, Liquid, Vibrating tube method
smiles,measurement,setting,value
CCCCCCCC(=O)OCC(COC(=O)CCCCCCC)(COC(=O)CCCCCCC)COC(=O)CCCCCCC [pentaerythritol tetraoctanoate],mass density,31267 kPa,960.2 ± 1.2 kg/m3
same,mass density,31296 kPa,960.3 ± 1.2 kg/m3
same,mass density,31325 kPa,960.2 ± 1.2 kg/m3
same,mass density,31360 kPa,960.3 ± 1.2 kg/m3
same,mass density,31389 kPa,960.2 ± 1.2 kg/m3
same,mass density,31418 kPa,960.1 ± 1.2 kg/m3
same,mass density,31452 kPa,960.2 ± 1.2 kg/m3
same,mass density,31481 kPa,960.3 ± 1.2 kg/m3
same,mass density,31510 kPa,960.4 ± 1.2 kg/m3
same,mass density,31540 kPa,960.4 ± 1.2 kg/m3
same,mass density,31575 kPa,960.3 ± 1.2 kg/m3
same,mass density,31604 kPa,960.4 ± 1.2 kg/m3
same,mass density,31640 kPa,960.3 ± 1.2 kg/m3
same,mass density,31669 kPa,960.4 ± 1.2 kg/m3
same,mass density,31699 kPa,960.3 ± 1.2 kg/m3
same,mass density,31731 kPa,960.4 ± 1.2 kg/m3
same,mass density,31761 kPa,960.4 ± 1.2 kg/m3
same,mass density,31785 kPa,960.4 ± 1.2 kg/m3
same,mass density,31827 kPa,960.5 ± 1.2 kg/m3
same,mass density,31856 kPa,960.5 ± 1.2 kg/m3
same,mass density,31892 kPa,960.5 ± 1.2 kg/m3
same,mass density,31922 kPa,960.5 ± 1.2 kg/m3
same,mass density,31952 kPa,960.6 ± 1.2 kg/m3
same,mass density,31987 kPa,960.6 ± 1.2 kg/m3
same,mass density,32018 kPa,960.7 ± 1.2 kg/m3
same,mass density,32048 kPa,960.5 ± 1.2 kg/m3
same,mass density,32084 kPa,960.6 ± 1.2 kg/m3
same,mass density,32115 kPa,960.6 ± 1.2 kg/m3
same,mass density,32147 kPa,960.7 ± 1.2 kg/m3
same,mass density,32178 kPa,960.7 ± 1.2 kg/m3
same,mass density,32208 kPa,960.8 ± 1.2 kg/m3
same,mass density,32244 kPa,960.7 ± 1.2 kg/m3
same,mass density,32275 kPa,960.8 ± 1.2 kg/m3
same,mass density,32305 kPa,960.6 ± 1.2 kg/m3
same,mass density,32343 kPa,960.8 ± 1.2 kg/m3
same,mass density,32374 kPa,960.8 ± 1.2 kg/m3
same,mass density,32404 kPa,960.6 ± 1.2 kg/m3
same,mass density,32442 kPa,960.8 ± 1.2 kg/m3
same,mass density,32467 kPa,960.8 ± 1.2 kg/m3
same,mass density,32504 kPa,961 ± 1.2 kg/m3
same,mass density,32542 kPa,960.9 ± 1.2 kg/m3
same,mass density,32574 kPa,960.9 ± 1.2 kg/m3
same,mass density,32605 kPa,961 ± 1.2 kg/m3
same,mass density,32642 kPa,960.9 ± 1.2 kg/m3
same,mass density,32706 kPa,961 ± 1.2 kg/m3
same,mass density,32744 kPa,961.1 ± 1.2 kg/m3
same,mass density,32776 kPa,961.1 ± 1.2 kg/m3
same,mass density,32838 kPa,961.1 ± 1.2 kg/m3
same,mass density,32877 kPa,961.1 ± 1.2 kg/m3
same,mass density,32909 kPa,961 ± 1.2 kg/m3
same,mass density,32941 kPa,961.1 ± 1.2 kg/m3
same,mass density,32980 kPa,961 ± 1.2 kg/m3
same,mass density,33012 kPa,961.2 ± 1.2 kg/m3
same,mass density,33050 kPa,961.1 ± 1.2 kg/m3
same,mass density,33083 kPa,961.2 ± 1.2 kg/m3
same,mass density,33115 kPa,961.2 ± 1.2 kg/m3
same,mass density,33147 kPa,961.2 ± 1.2 kg/m3
same,mass density,33186 kPa,961.2 ± 1.2 kg/m3
same,mass density,33219 kPa,961.3 ± 1.2 kg/m3
same,mass density,33258 kPa,961.2 ± 1.2 kg/m3
same,mass density,33291 kPa,961.3 ± 1.2 kg/m3
same,mass density,33324 kPa,961.3 ± 1.2 kg/m3
same,mass density,33363 kPa,961.4 ± 1.2 kg/m3
same,mass density,33396 kPa,961.5 ± 1.2 kg/m3
same,mass density,33429 kPa,961.3 ± 1.2 kg/m3
same,mass density,33470 kPa,961.4 ± 1.2 kg/m3
same,mass density,33503 kPa,961.3 ± 1.2 kg/m3
same,mass density,33536 kPa,961.6 ± 1.2 kg/m3
same,mass density,33576 kPa,961.4 ± 1.2 kg/m3
same,mass density,33610 kPa,961.5 ± 1.2 kg/m3
same,mass density,33644 kPa,961.5 ± 1.2 kg/m3
same,mass density,33685 kPa,961.5 ± 1.2 kg/m3
same,mass density,33720 kPa,961.6 ± 1.2 kg/m3
same,mass density,33755 kPa,961.5 ± 1.2 kg/m3
